Test results from US12250947B2, “Substituted azaspiro-cycles as herbicides” (SYNGENTA CROP PROTECTION AG, priority 2019, dated 2025).

What was measured:
Assay type in all cases: in vivo
[1] = system: Echinochloa crus-galli (ECHCG); experiment: Herbicidal glasshouse test, post-emergence, ECHCG; conditions: 250 g/Ha, evaluated after 13 days
Description: (§1) Seeds of a variety of test species are sown in standard soil in pots (Lolium perenne (LOLPE), Setaria faberi (SETFA), Alopecurus myosuroides (ALOMY), Echinochloa crus-galli (ECHCG), Avena fatua (AVEFA)). […] Compounds are applied at 250 g/h. The test plants are then grown in a glasshouse under controlled conditions in a glasshouse (at 24/16° C., day/night; 14 hours light; 65% humidity) and watered twice daily. After 13 days for pre and post-emergence, the test is evaluated for the percentage damage caused to the plant. […] NT=not tested.

[2] = system: Alopecurus myosuroides (ALOMY); experiment: Herbicidal glasshouse test, post-emergence, ALOMY; conditions: 250 g/Ha, evaluated after 13 days
Description: as §1

[3] = system: Setaria faberi (SETFA); experiment: Herbicidal glasshouse test, pre-emergence, SETFA; conditions: 250 g/Ha, evaluated after 13 days
Description: as §1

[4] = system: Avena fatua (AVEFA); experiment: Herbicidal glasshouse test, post-emergence, AVEFA; conditions: 250 g/Ha, evaluated after 13 days
Description: as §1

[5] = system: Alopecurus myosuroides (ALOMY); experiment: Herbicidal glasshouse test, pre-emergence, ALOMY; conditions: 250 g/Ha, evaluated after 13 days
Description: as §1

[6] = system: Setaria faberi (SETFA); experiment: Herbicidal glasshouse test, post-emergence, SETFA; conditions: 250 g/Ha, evaluated after 13 days
Description: as §1

[7] = system: Lolium perenne (LOLPE); experiment: Herbicidal glasshouse test, post-emergence, LOLPE; conditions: 250 g/Ha, evaluated after 13 days
Description: as §1

[8] = system: Avena fatua (AVEFA); experiment: Herbicidal glasshouse test, pre-emergence, AVEFA; conditions: 250 g/Ha, evaluated after 13 days
Description: as §1

[9] = system: Lolium perenne (LOLPE); experiment: Herbicidal glasshouse test, pre-emergence, LOLPE; conditions: 250 g/Ha, evaluated after 13 days
Description: as §1

[10] = system: Echinochloa crus-galli (ECHCG); experiment: Herbicidal glasshouse test, pre-emergence, ECHCG; conditions: 250 g/Ha, evaluated after 13 days
Description: as §1

[11] = system: wheat crop plants; experiment: Crop phytotoxicity comparison, post-emergence, wheat
Description: (§2) Seeds of a variety of test species are sown in standard soil in pots (Lolium perenne (LOLPE), Setaria faberi (SETFA), Alopecurus myosuroides (ALOMY), Echinochloa crus-galli (ECHCG), Avena fatua (AVEFA)). After cultivation for one day (pre-emergence) or after 8 days cultivation (post-emergence) under controlled conditions in a glasshouse (at 24/16° C., day/night; 14 hours light; 65% humidity), the plants are sprayed with an aqueous spray solution derived from the formulation of the technical active ingredient in acetone/water (50:50) solution containing 0.5% Tween 20 (polyoxyethelyene sorbitan monolaurate, CAS RN 9005-64-5). Compounds are applied at 250 g/h. The test plants are then grown in a glasshouse under controlled conditions in a glasshouse (at 24/16° C., day/night; 14 hours light; 65% humidity) and watered twice daily. After 13 days for pre and post-emergence, the test is evaluated for the percentage damage caused to the plant. The biological activities are shown in the following table on a five-point scale (5=80-100%; 4=60-79%; 3=40-59%; 2=20-39%; 1=0-19%). NT=not tested.
(§3) Using procedures outlines above, wheat and barley crop plants are treated, post-emergence with compounds A1 or A4 of the present invention or comparator compound C1 (Compound A-38 from WO2014/096289) at the application rates indicated. The compounds were also applied in conjunction with the safener compound cloquintocet-mexyl (CQC) at 50 g/ha.

[12] = system: barley crop plants; experiment: Crop phytotoxicity comparison, post-emergence, barley
Description: as §2, §3

Compound: CC#Cc1cc(C)c(C2C(=O)CC3(CCN(C(=O)C(=O)NC)CC3)CC2=O)c(C)c1 [Compound A4, 2-[9-(2,6-dimethyl-4-prop-1-ynyl-phenyl)-8,10-dioxo-3-azaspiro[5.5]undecan-3-yl]-N-methyl-2-oxo-acetamide]
- percentage damage caused to the plant, five-point scale, ECHCG [1]: 5 (5=80-100%)
- percentage damage caused to the plant, five-point scale, ALOMY [2]: 5 (5=80-100%)
- percentage damage caused to the plant, five-point scale, SETFA [3]: 5 (5=80-100%)
- percentage damage caused to the plant, five-point scale, AVEFA [4]: 5 (5=80-100%)
- percentage damage caused to the plant, five-point scale, ALOMY [5]: 4 (4=60-79%)
- percentage damage caused to the plant, five-point scale, SETFA [6]: 5 (5=80-100%)
- percentage damage caused to the plant, five-point scale, LOLPE [7]: 5 (5=80-100%)
- percentage damage caused to the plant, five-point scale, AVEFA [8]: 5 (5=80-100%)
- percentage damage caused to the plant, five-point scale, LOLPE [9]: 5 (5=80-100%)
- percentage damage caused to the plant, five-point scale, ECHCG [10]: 5 (5=80-100%)

Compound: CC#Cc1cc(C)c(C2C(=O)CC3(CCN(C(=O)C(=O)OCC)CC3)CC2=O)c(C)c1 [Compound A2]
- percentage damage caused to the plant, five-point scale, ECHCG [1]: 5 (5=80-100%)
- percentage damage caused to the plant, five-point scale, ALOMY [2]: 4 (4=60-79%)
- percentage damage caused to the plant, five-point scale, SETFA [3]: 5 (5=80-100%)
- percentage damage caused to the plant, five-point scale, AVEFA [4]: 4 (4=60-79%)
- percentage damage caused to the plant, five-point scale, ALOMY [5]: 0
- percentage damage caused to the plant, five-point scale, SETFA [6]: 5 (5=80-100%)
- percentage damage caused to the plant, five-point scale, LOLPE [7]: 5 (5=80-100%)
- percentage damage caused to the plant, five-point scale, AVEFA [8]: 1 (1=0-19%)
- percentage damage caused to the plant, five-point scale, LOLPE [9]: 3 (3=40-59%)
- percentage damage caused to the plant, five-point scale, ECHCG [10]: 4 (4=60-79%)

Compound: CC#Cc1cc(C)c(C2C(=O)CC3(CCN(C(=O)C(=O)C(C)(C)C)CC3)CC2=O)c(C)c1 [Compound A7]
- percentage damage caused to the plant, five-point scale, ECHCG [1]: 5 (5=80-100%)
- percentage damage caused to the plant, five-point scale, ALOMY [2]: 5 (5=80-100%)
- percentage damage caused to the plant, five-point scale, SETFA [3]: 5 (5=80-100%)
- percentage damage caused to the plant, five-point scale, AVEFA [4]: 5 (5=80-100%)
- percentage damage caused to the plant, five-point scale, ALOMY [5]: 3 (3=40-59%)
- percentage damage caused to the plant, five-point scale, SETFA [6]: 5 (5=80-100%)
- percentage damage caused to the plant, five-point scale, LOLPE [7]: 5 (5=80-100%)
- percentage damage caused to the plant, five-point scale, AVEFA [8]: 3 (3=40-59%)
- percentage damage caused to the plant, five-point scale, LOLPE [9]: 5 (5=80-100%)
- percentage damage caused to the plant, five-point scale, ECHCG [10]: 5 (5=80-100%)

Compound: CC#Cc1cc(C)c(C2=C(OC(=O)OC)CC3(CCN(C(=O)C(C)=O)CC3)CC2=O)c(C)c1 [Compound P1, [9-(2,6-dimethyl-4-prop-1-ynyl-phenyl)-10-oxo-3-(2-oxopropanoyl)-3-azaspiro[5.5]undec-8-en-8-yl] methyl carbonate]
- percentage damage caused to the plant, five-point scale, ECHCG [1]: 5 (5=80-100%)
- percentage damage caused to the plant, five-point scale, ALOMY [2]: 5 (5=80-100%)
- percentage damage caused to the plant, five-point scale, SETFA [3]: 5 (5=80-100%)
- percentage damage caused to the plant, five-point scale, AVEFA [4]: 5 (5=80-100%)
- percentage damage caused to the plant, five-point scale, ALOMY [5]: 5 (5=80-100%)
- percentage damage caused to the plant, five-point scale, SETFA [6]: 5 (5=80-100%)
- percentage damage caused to the plant, five-point scale, LOLPE [7]: 5 (5=80-100%)
- percentage damage caused to the plant, five-point scale, AVEFA [8]: 5 (5=80-100%)
- percentage damage caused to the plant, five-point scale, LOLPE [9]: 5 (5=80-100%)
- percentage damage caused to the plant, five-point scale, ECHCG [10]: 5 (5=80-100%)

Compound: CC#Cc1cc(C)c(C2C(=O)CC3(CCN(C(=O)C(N)=O)CC3)CC2=O)c(C)c1 [Compound A8]
- percentage damage caused to the plant, five-point scale, ECHCG [1]: 5 (5=80-100%)
- percentage damage caused to the plant, five-point scale, ALOMY [2]: 5 (5=80-100%)
- percentage damage caused to the plant, five-point scale, SETFA [3]: 5 (5=80-100%)
- percentage damage caused to the plant, five-point scale, AVEFA [4]: 5 (5=80-100%)
- percentage damage caused to the plant, five-point scale, ALOMY [5]: 5 (5=80-100%)
- percentage damage caused to the plant, five-point scale, SETFA [6]: 5 (5=80-100%)
- percentage damage caused to the plant, five-point scale, LOLPE [7]: 5 (5=80-100%)
- percentage damage caused to the plant, five-point scale, AVEFA [8]: 5 (5=80-100%)
- percentage damage caused to the plant, five-point scale, LOLPE [9]: 5 (5=80-100%)
- percentage damage caused to the plant, five-point scale, ECHCG [10]: 5 (5=80-100%)

Compound: CC#Cc1cc(C)c(C2C(=O)CC3(CCN(C(=O)C(=O)Nc4ccccn4)CC3)CC2=O)c(C)c1 [Compound A6]
- percentage damage caused to the plant, five-point scale, ECHCG [1]: 5 (5=80-100%)
- percentage damage caused to the plant, five-point scale, ALOMY [2]: 5 (5=80-100%)
- percentage damage caused to the plant, five-point scale, SETFA [3]: 5 (5=80-100%)
- percentage damage caused to the plant, five-point scale, AVEFA [4]: 5 (5=80-100%)
- percentage damage caused to the plant, five-point scale, ALOMY [5]: 2 (2=20-39%)
- percentage damage caused to the plant, five-point scale, SETFA [6]: 5 (5=80-100%)
- percentage damage caused to the plant, five-point scale, LOLPE [7]: 5 (5=80-100%)
- percentage damage caused to the plant, five-point scale, AVEFA [8]: 4 (4=60-79%)
- percentage damage caused to the plant, five-point scale, LOLPE [9]: 4 (4=60-79%)
- percentage damage caused to the plant, five-point scale, ECHCG [10]: 5 (5=80-100%)

Compound: CC#Cc1cc(C)c(C2C(=O)CC3(CCN(C(=O)C(=O)C(F)(F)F)CC3)CC2=O)c(C)c1 [Compound A3]
- damage to the wheat and barley crops compared to prior art compound C1 ([11]; wheat and barley crops, summary of Table B3): significantly less damaging
- percentage damage caused to the plant, five-point scale, ECHCG [1]: 5 (5=80-100%)
- percentage damage caused to the plant, five-point scale, ALOMY [2]: 5 (5=80-100%)
- percentage damage caused to the plant, five-point scale, SETFA [3]: 5 (5=80-100%)
- percentage damage caused to the plant, five-point scale, AVEFA [4]: 5 (5=80-100%)
- percentage damage caused to the plant, five-point scale, ALOMY [5]: 5 (5=80-100%)
- percentage damage caused to the plant, five-point scale, SETFA [6]: 5 (5=80-100%)
- percentage damage caused to the plant, five-point scale, LOLPE [7]: 5 (5=80-100%)
- percentage damage caused to the plant, five-point scale, AVEFA [8]: 4 (4=60-79%)
- percentage damage caused to the plant, five-point scale, LOLPE [9]: 5 (5=80-100%)
- percentage damage caused to the plant, five-point scale, ECHCG [10]: 5 (5=80-100%)

Compound: CC#Cc1cc(C)c(C2C(=O)CC3(CCN(C(=O)C(=O)N(C)C)CC3)CC2=O)c(C)c1 [Compound A5]
- percentage damage caused to the plant, five-point scale, ECHCG [1]: 5 (5=80-100%)
- percentage damage caused to the plant, five-point scale, ALOMY [2]: 5 (5=80-100%)
- percentage damage caused to the plant, five-point scale, SETFA [3]: 5 (5=80-100%)
- percentage damage caused to the plant, five-point scale, AVEFA [4]: 5 (5=80-100%)
- percentage damage caused to the plant, five-point scale, ALOMY [5]: 5 (5=80-100%)
- percentage damage caused to the plant, five-point scale, SETFA [6]: 5 (5=80-100%)
- percentage damage caused to the plant, five-point scale, LOLPE [7]: 5 (5=80-100%)
- percentage damage caused to the plant, five-point scale, AVEFA [8]: 4 (4=60-79%)
- percentage damage caused to the plant, five-point scale, LOLPE [9]: 5 (5=80-100%)
- percentage damage caused to the plant, five-point scale, ECHCG [10]: 5 (5=80-100%)

Compound: CC#Cc1cc(C)c(C2C(=O)CC3(CCN(C(=O)C(=O)NC(C)(C)C)CC3)CC2=O)c(C)c1 [Compound A9, N-tert-butyl-2-[9-(2,6-dimethyl-4-prop-1-ynyl-phenyl)-8,10-dioxo-3-azaspiro[5.5]undecan-3-yl]-2-oxo-acetamide]
- percentage damage caused to the plant, five-point scale, ECHCG [1]: 5 (5=80-100%)
- percentage damage caused to the plant, five-point scale, ALOMY [2]: 4 (4=60-79%)
- percentage damage caused to the plant, five-point scale, SETFA [3]: 5 (5=80-100%)
- percentage damage caused to the plant, five-point scale, AVEFA [4]: 5 (5=80-100%)
- percentage damage caused to the plant, five-point scale, ALOMY [5]: 5 (5=80-100%)
- percentage damage caused to the plant, five-point scale, SETFA [6]: 5 (5=80-100%)
- percentage damage caused to the plant, five-point scale, LOLPE [7]: 5 (5=80-100%)
- percentage damage caused to the plant, five-point scale, AVEFA [8]: 5 (5=80-100%)
- percentage damage caused to the plant, five-point scale, LOLPE [9]: 5 (5=80-100%)
- percentage damage caused to the plant, five-point scale, ECHCG [10]: 5 (5=80-100%)

Compound: CC#Cc1cc(C)c(C2C(=O)CC3(CCOCC3)CC2=O)c(C)c1 [Compound C1, reference compound]
- % phytotoxicity observed, Wheat ([11]; rate 30 g/ha): 40%
- % phytotoxicity observed, Wheat ([11]; rate 60 g/ha): 70%
- % phytotoxicity observed, Wheat ([11]; rate 60 g/ha + safener cloquintocet-mexyl (CQC) at 50 g/ha): 60%
- % phytotoxicity observed, Barley ([12]; rate 30 g/ha): 80%
- % phytotoxicity observed, Barley ([12]; rate 60 g/ha): 90%
